Experimental data as given in patent US9145354B2, “Pharmaceutical compounds” (priority 2011, dated 2015).
Structures can show the parent of a compound that is named as a salt. Where two headings read alike, the source gives them in different places.

Target: full length NS3/4a (Hepatitis C virus genotype 1b (isolate BK) (HCV), UniProt P26663)
Assay: NS3 Protease Assay (Example A), FRET-based
Format: biochemical
Method in brief: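 Full-length NS3/4a, made in-house, with an NS4A/B-derived peptide substrate carrying QXL520 quencher and 5-FAMsp fluorophore. Buffer 50 mM Tris pH8, 20 mM DTT, 1% CHAPS, 10% glycerol, 5% DMSO. Fluorescence followed 30 min at room temperature; IC50 from initial rates of replicate curves.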

[1] = stated as IC50 less than 30 μM or at least 40% inhibition at a concentration of 100 μM, read-out: IC50 against the protease activity of the full length NS3/4a
[2] = HCV NS3 protease assay, full length NS3/4a, read-out: Assay A IC50 (μM) average
[3] = read-out: IC50 against the protease activity of the full length NS3/4a

full length NS3/4a, sequence (P26663 1027-1657): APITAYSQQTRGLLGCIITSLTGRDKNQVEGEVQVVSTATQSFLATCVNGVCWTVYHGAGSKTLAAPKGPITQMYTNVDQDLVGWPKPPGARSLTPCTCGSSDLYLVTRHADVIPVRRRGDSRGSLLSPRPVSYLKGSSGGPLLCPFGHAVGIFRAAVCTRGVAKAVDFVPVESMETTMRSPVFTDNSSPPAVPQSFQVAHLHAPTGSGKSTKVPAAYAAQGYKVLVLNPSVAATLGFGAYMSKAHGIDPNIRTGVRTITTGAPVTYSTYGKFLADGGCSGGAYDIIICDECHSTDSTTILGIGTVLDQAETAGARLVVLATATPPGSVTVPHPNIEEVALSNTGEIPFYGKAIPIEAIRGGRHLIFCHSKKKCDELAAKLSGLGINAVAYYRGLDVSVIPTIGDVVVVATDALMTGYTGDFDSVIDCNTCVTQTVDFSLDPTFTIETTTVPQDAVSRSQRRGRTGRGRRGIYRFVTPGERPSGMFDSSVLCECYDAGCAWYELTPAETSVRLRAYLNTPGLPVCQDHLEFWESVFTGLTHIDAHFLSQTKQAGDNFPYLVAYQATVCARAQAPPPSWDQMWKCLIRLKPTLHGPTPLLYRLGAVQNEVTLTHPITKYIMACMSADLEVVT

## CC[C@@H](N[C@@H](C)CC(N)=O)c1ccc(Cl)c(C(=O)c2ccc(C(N)=O)cc2)c1F [Example 146, 4-({3-[(1R)-1-{[(2S)-1-Carbamoylpropan-2-yl]amino}propyl]-6-chloro-2-fluorophenyl}carbonyl)-benzamide]
@ 0.3 uM
  inhibition at 0.3 µM: 56%

## CC[C@@H](N[C@H](C)CC(N)=O)c1ccc(Cl)c(C(=O)c2ccc(=O)[nH]c2)c1F [Example 148, (3R)-3-{[(1R)-1-{4-chloro-2-fluoro-3-[(6-oxo-1,6-dihydropyridin-3-yl)carbonyl]-phenyl}propyl]amino}-butanamide]
  inhibition at 10 µM: 43%
[1]
  IC50: < 30 µM

## CC[C@@H](N[C@H](C)CC(N)=O)c1ccc(C)c(C(=O)c2ccccc2)c1F [Example 151, (3R)-3-{[(1R)-1-(3-benzoyl-2-fluoro-4-methylphenyl)propyl]amino}butanamide]
[2]
  IC50: 0.49 µM

## CC[C@@H](N[C@H](C)CC(N)=O)c1ccc(OC)c(C(=O)c2ccccc2)c1F [Example 153, (3R)-3-{[(1R)-1-(3-benzoyl-2-fluoro-4-methoxyphenyl)propyl]amino}butanamide]
[2]
  IC50: 0.49 µM

## C[C@H](CC(N)=O)N[C@@H](c1ccc(Cl)c(C(=O)c2ccc(N)nc2)c1F)C1CC1 [Example 155, (3R)-3-{[(R)-{3-[(6-aminopyridin-3-yl)carbonyl]-4-chloro-2-fluorophenyl}(cyclo-propyl)methyl]amino}-butanamide]
[2]
  IC50: 1 µM
[3]
  IC50: 1 to 5 µM

## CC[C@@H](N[C@H](C)CC(N)=O)c1ccc(Cl)c(C(=O)c2ccc(N)cn2)c1F [Example 156, (3R)-3-{[(1R)-1-{3-[(5-aminopyridin-2-yl)carbonyl]-4-chloro-2-fluorophenyl}propyl]-amino}butanamide]
[2]
  IC50: 2 µM
[3]
  IC50: 1 to 5 µM

## CC[C@@H](N[C@H](C)CC(N)=O)c1ccc(F)c(C(=O)c2ccccc2)c1F [Example 158, (3R)-3-{[(1R)-1-(3-benzoyl-2,4-difluorophenyl)propyl]-amino}butanamide]
[2]
  IC50: 0.35 µM

## CC[C@@H](N[C@H](C)CC(N)=O)c1ccc(Cl)c(C(=O)c2ccc(-n3cc(CO)cn3)nc2)c1F [Example 160, (3R)-3-{[(1R)-1-[4-chloro-2-fluoro-3-({6-[4-(hydroxymethyl)-1H-pyrazol-1-yl]pyridin-3-yl}carbonyl)phenyl]-propyl]amino}-butanamide]
[2]
  IC50: 4.2 µM
[3]
  IC50: 1 to 5 µM

## CC[C@@H](NCCO)c1ccc(Cl)c(C(=O)c2cccnc2)c1F [Example 163, 2-{[(1R)-1-{4-Chloro-2-fluoro-3-[(pyridin-3-yl)carbonyl]phenyl}propyl]amino}ethan-1-ol]
  inhibition at 10 µM: 62%
[1]
  IC50: < 30 µM

## CC[C@@H](NCC(N)=O)c1ccc(Cl)c(C(=O)c2cccnc2)c1F [Example 164, 2-{[(1R)-1-{4-Chloro-2-fluoro-3-[(pyridin-3-yl)carbonyl]phenyl}propyl]amino}-acetamide]
  inhibition at 10 µM: 37%

## CC[C@@H](N[C@@H](C)CO)c1ccc(Cl)c(C(=O)c2cccnc2)c1F [Example 165, (2S)-2-{[(1R)-1-{4-chloro-2-fluoro-3-[(pyridin-3-yl)carbonyl]phenyl}-propyl]amino}-propan-1-ol]
[2]
  IC50: 1.4 µM
[3]
  IC50: 1 to 5 µM

## CC[C@@H](N[C@H](C)CO)c1ccc(Cl)c(C(=O)c2cccnc2)c1F [Example 166, (2R)-2-{[(1R)-1-{4-chloro-2-fluoro-3-[(pyridin-3-yl)carbonyl}phenyI}-propyl]amino}propan-1-ol]
[2]
  IC50: 6.3 µM
[1]
  IC50: < 30 µM

## CC[C@@H](N[C@H](C)C(N)=O)c1ccc(Cl)c(C(=O)c2cccnc2)c1F [Example 169, (2R)-2-{[(1R)-1-{4-chloro-2-fluoro-3-[(pyridin-3-yl)carbonyl]phenyI}-propyl]amino}propanamide]
@ 100 uM
  Assay A % inhibition average: 53% @ 100 uM
[1]
  IC50: < 30 µM

## CC[C@@H](N[C@@H](C)C(N)=O)c1ccc(Cl)c(C(=O)c2cccnc2)c1F [Example 170, (2S)-2-{[(1R)-1-{4-chloro-2-fluoro-3-[(pyridin-3-yl)carbonyl]phenyl}-propyl]amino}-propanamide]
@ 3 uM
  inhibition at 3 µM: 55%
[3]
  IC50: 1 to 5 µM

## CC[C@@H](NCC(C)(C)C(N)=O)c1ccc(Cl)c(C(=O)c2cccnc2)c1F [Example 172, 3-{(R)-1-[4-Chloro-2-fluoro-3-(pyridine-3-carbonyl)-phenyl]-propylamino}-2,2-dimethyl-propionamide]
[2]
  IC50: 1.6 µM
[3]
  IC50: 1 to 5 µM

## CC[C@H](NCCO)c1ccc(Cl)c(C(=O)c2ccc(N)nc2)c1F [Example 173, 2-{[(1S)-1-{3-[(6-aminopyridin-3-yl)carbonyl]-4-chloro-2-fluorophenyl}propyl]-amino}ethan-1-ol]
[2]
  IC50: 0.13 µM
[3]
  IC50: < 1 µM

## CC[C@@H](NC[C@@H](C)C(N)=O)c1ccc(Cl)c(C(=O)c2cccnc2)c1F.Cl [Example 174, 2R)-3-{[(1R)-1-{4-chloro-2-fluoro-3-[(pyridin-3-yl)carbonyl]phenyl}-propyl]amino}-2-methylpropanamide HCl (1:1]
  Assay A % inhibition average: 47% @ 30 uM
[1]
  IC50: < 30 µM

## CC[C@@H](NCCCO)c1ccc(Cl)c(C(=O)c2ccccc2)c1F [Example 181, 3-{[(1R)-1-(3-benzoyl-4-chloro-2-fluorophenyl)propyl]-amino}propan-1-ol]
[2]
  IC50: 0.26 µM

## CC[C@H](NCCCO)c1ccc(Cl)c(C(=O)c2ccccc2)c1F [Example 182, 3-{[(1S)-1-(3-benzoyl-4-chloro-2-fluorophenyl)propyl]-amino}propan-1-ol]
[2]
  IC50: 0.038 µM

## CCC(NC1(C(N)=O)CC1)c1ccc(Cl)c(C(=O)c2ccccc2)c1F (stereo not shown) [Example 184, 1-[1-(3-Benzoyl-4-chloro-2-fluorophenyl)-propylamino]-cyclopropanecarboxylic acid amide.HCl]
  inhibition at 10 µM: 22%

## NC(=O)CCN[C@@H](c1ccc(Cl)c(C(=O)c2cnc(N)cn2)c1F)C1CC1 [Example 185, 3-{[(R)-{3-[(5-aminopyrazin-2-yl)carbonyl]-4-chloro-2-fluorophenyl}(cyclo-propyl)methyl]amino}-propanamide]
[2]
  IC50: 0.6 µM

## CC[C@@H](N[C@@H](C)CC(N)=O)c1ccc(Cl)c(C(=O)c2ccc(CO)cc2)c1F [Example 186, (3S)-3-{[(1R)-1-(4-chloro-2-fluoro-3-{[4-(hydroxymethyl)-phenyl]carbonyl}phenyl)propyl]amino}-butanamide]
[2]
  IC50: 0.11 µM

## CC[C@@H](N[C@H](C)CC(N)=O)c1ccc(Cl)c(C(=O)c2ccc(CO)cc2)c1F [Example 187, (3R)-3-{[(1R)-1-(4-chloro-2-fluoro-3-{[4-(hydroxymethyl)-phenyl]-carbonyl}phenyl)-propyl]amino}butanamide]
[2]
  IC50: 0.66 µM

## CC[C@@H](N[C@@H](C)CC(N)=O)c1ccc(Cl)c(C(=O)c2cccc(CO)c2)c1F [Example 188, (3S)-3-{[(1R)-1-(4-chloro-2-fluoro-3-{[3-(hydroxymethyl)-phenyl]carbonyl}phenyl)-propyl]amino}butanamide]
[2]
  IC50: 0.14 µM

## CC[C@@H](N[C@H](C)CC(N)=O)c1ccc(Cl)c(C(=O)c2cccc(CO)c2)c1F [Example 189, (3R)-3-{[(1R)-1-(4-chloro-2-fluoro-3-{[3-(hydroxymethyl)-phenyl]-carbonyl}phenyl)-propyl]amino}butanamide]
[2]
  IC50: 0.54 µM
